# Measurements published in patent US20080300298A1, “Honokiol Derivates For the Treatment of Proliferative Disorders” (priority 2005, published 2008).
# Legend:
# IkBa and p65 = assay: Western blot / immunocytochemistry of TNF-induced IkBa and p65 events; type: cell-based, human
# Experimental: Honokiol inhibits TNF-induced activation of NF-kB. H1299 cells were incubated with […] honokiol for 12 h, treated with 0.1 nM TNF for the indicated times, and then analyzed for NF-kB activation by EMSA. (B) H1299 cells (2×10^6/ml) were incubated with […] honokiol for 12 h at 37° C., treated with 0.1 nM TNF for the indicated times at 37° C., and then tested for IkBa (upper panel) in cytosolic fractions by Western blot analysis. Equal protein loading was evaluated by b-actin (lower panel). (C) Honokiol blocks the phosphorylation and ubiquitination (D) of IkBaby TNF. Cells were preincubated with […] honokiol for 12 h, incubated with […]/ml N-acetyl-leucyl-leucyl-norleucinal (ALLN) for 30 min, and then treated with 0.1 nM TNF for 10 min. Cytoplasmic extracts were fractionated and then subjected to Western blot analysis using phospho-specific anti-IkBa antibody. The same membrane was reblotted with anti-IkBa antibody. (E) Honokiol inhibits TNF-induced IkBakinase activity. H1299 cells (2×10^6/ml) were treated with […] honokiol for 12 h and then treated with 0.1 nM TNF for the indicated time intervals. Whole-cell extracts were prepared, and 200 mg of extract was immunoprecipitated with antibodies against IKKa and IKKb. The immune complex kinase assay was then performed as described in Materials and Methods. To examine the effect of honokiol on the level of expression of IKK proteins, 30 mg of whole-cell extract was analyzed on 10% SDS-PAGE, electrotransferred, and immunoblotted with the indicated antibodies as described in Materials and Methods. (F) Honokiol inhibits TNF-induced nuclear translocation of p65. H1299 cells (2×10^6/ml) were either untreated or pretreated with […] honokiol for 12 h at 37° C. and then treated with 0.1 nM TNF for the indicated times. Nuclear extracts were prepared and analyzed by Western blotting using antibodies against p65. (G) honokiol inhibits TNF-induced nuclear translocation of p65. H1299 cells (1×10^6/ml) were first treated with […] honokiol for 12 h at 37° C. and then exposed to 0.1 nM TNF. After cytospin, immunocytochemical analysis was performed as described in Materials and Methods. […] (H) Honokiol inhibits TNF-induced phosphorylation of p65. H1299 cells (2×10^6/ml) were incubated with 25 mM honokiol for 12 h and then treated with 0.1 nM TNF for the indicated times. The cytoplasmic and nuclear extracts were analyzed by Western blotting using antibodies against the phosphorylated form of p65.
# Western blot analysis. […] Cytoplasmic protein […] was resolved on 10% SDS-PAGE gel, transferred to a nitrocellulose membrane, blocked with 5% non-fat milk, and probed with specific antibodies against IkBa, posphorylated IkBa, p65, and phosphorylated p65. To determine the expression of cyclin D1, COX-2, MMP-9, cIAP-1, TRAF1, Bcl-2, Bfl-1, cFLIP, and survivin in whole-cell extracts of treated cells (2×10^6 cells in 2 ml of medium), […] of protein was resolved on SDS-PAGE and probed by Western blot with specific antibodies as per the manufacturer's recommended protocol. The blots were washed, exposed to HRP-conjugated secondary antibodies for 1 h, and finally detected by ECL reagent (Amersham Pharmacia Biotechnology, Piscataway, N.J.). The bands were quantified using a Personal Densitometer Scan v1.30 using Imagequant software version 3.3 (Molecular Dynamics).
# Immunolocalization of NF-kB p65. […]
# MDA-MB-231 cells = assay: Cell cycle assay (PI); type: cell-based; settings: 24 hours (control 26%)
# Experimental: Cell cycle assays: 5×10^6 cells were cultured in the appropriate culture media containing 10% FCS, and treated with either control vehicle or various concentrations of HNK as indicated for 24 h. Following treatment, the cells were harvested, fixed in methanol and stained with propidium iodide (PI, Abcam, Cambridge, Mass.). Flow cytometry was performed at the Flow Cytometry Core facility of Cedars-Sinai Medical Center, using FACScan (Becton Dickinson, Franklin Lakes, N.J.).
# HNK slows cell cycle in breast cancer cell lines. The effects of HNK (10 μM or 30 μM HNK for 24 hours) on cell cycle were evaluated in MCF-7 and MDA-MB-231 cells. These doses of HNK are less than the LC50 for both cell lines. […] Expression of proteins involved in G1 cell-cycle regulation (massgue) was examined in MDA-MB-231 cells using Western analysis.
compound,measurement,setting,value
"C=CCc1ccc(O)c(-c2ccc(O)c(CC=C)c2)c1 [HNK, Honokiol]",TNF-induced phosphorylation of p65,IkBa and p65,suppressed p65 phosphorylation almost completely
same,TNF-dependent IkBa degradation,"IkBa and p65; 25 mM (printed) honokiol 12 h, 0.1 nM TNF",TNF had no effect on IkBa degradation
same,TNF-induced nuclear translocation of p65,IkBa and p65; Western blot analysis,suppressed nuclear translocation of the p65 subunit of NF-kB
same,TNF-induced IkBa phosphorylation,"IkBa and p65; with ALLN, 0.1 nM TNF 10 min",completely suppressed it
same,TNF-induced IkBa ubiquitination,"IkBa and p65; with ALLN, 0.1 nM TNF 10 min",completely suppressed it
same,cells in S-phase,"MDA-MB-231 cells; MDA-MB-231, 10 μM",15%
same,cells in S-phase,"MDA-MB-231 cells; MDA-MB-231, 30 μM",10%
